Measurements published in PubChem BioAssay AID1919010 (Molecular Pharmacology Branch, DTP, NCI, 2023).
Where “and” joins values, the source holds several entries; their conditions need not be identical. Equal entries are not always repeated.

Test system: Hs578T complex spheroid growth, percent test/control
Assay: Anticancer human tumor Hs578T cell line growth inhibition [AhR];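 further: luminescent viability signal as a proxy for spheroid growth; spheroids exposed to agents for one week after three days of growth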
Details: for viability, T/C: stronger effect = lower value; active means viability on the fitted dose curve at most 10% of control; inactive means the rest
Outline: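 Agents were dosed in half-log steps down from roughly clinical Cmax, or from 10 microM where Cmax was unknown, alone and with AhR antagonists. Read-out: percent test/control growth of tumor spheroids containing HUVEC and MSC stromal cells.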

[1] = curve of first compound, second compound 0.1 µM
[2] = curve of first compound, second compound 0.316 µM
[3] = curve of first compound, second compound 1 µM
[4] = curve of first compound, second compound 3.16 µM
[5] = curve of first compound, second compound 10 µM
[6] = second compound 0.1 µM, first compound 0.00316 µM
[7] = second compound 0.1 µM, first compound 0.01 µM
[8] = second compound 0.1 µM, first compound 0.0316 µM
[9] = second compound 0.1 µM, first compound 0.1 µM
[10] = second compound 0.1 µM, first compound 0.316 µM
[11] = second compound 0.1 µM, first compound 1 µM
[12] = second compound 0.316 µM, first compound 0.00316 µM
[13] = second compound 0.316 µM, first compound 0.01 µM
[14] = second compound 0.316 µM, first compound 0.0316 µM
[15] = second compound 0.316 µM, first compound 0.1 µM
[16] = second compound 0.316 µM, first compound 0.316 µM
[17] = second compound 0.316 µM, first compound 1 µM
[18] = second compound 1 µM, first compound 0.00316 µM
[19] = second compound 1 µM, first compound 0.01 µM
[20] = second compound 1 µM, first compound 0.0316 µM
[21] = second compound 1 µM, first compound 0.1 µM
[22] = second compound 1 µM, first compound 0.316 µM
[23] = second compound 1 µM, first compound 1 µM
[24] = second compound 3.16 µM, first compound 0.00316 µM
[25] = second compound 3.16 µM, first compound 0.01 µM
[26] = second compound 3.16 µM, first compound 0.0316 µM
[27] = second compound 3.16 µM, first compound 0.1 µM
[28] = second compound 3.16 µM, first compound 0.316 µM
[29] = second compound 3.16 µM, first compound 1 µM
[30] = second compound 10 µM, first compound 0.00316 µM
[31] = second compound 10 µM, first compound 0.01 µM
[32] = second compound 10 µM, first compound 0.0316 µM
[33] = second compound 10 µM, first compound 0.1 µM
[34] = second compound 10 µM, first compound 0.316 µM
[35] = second compound 10 µM, first compound 1 µM
[36] = second compound 0.1 µM, first compound 3.16 µM
[37] = second compound 0.1 µM, first compound 10 µM
[38] = second compound 0.316 µM, first compound 3.16 µM
[39] = second compound 0.316 µM, first compound 10 µM
[40] = second compound 1 µM, first compound 3.16 µM
[41] = second compound 1 µM, first compound 10 µM
[42] = second compound 3.16 µM, first compound 3.16 µM
[43] = second compound 3.16 µM, first compound 10 µM
[44] = second compound 10 µM, first compound 3.16 µM
[45] = second compound 10 µM, first compound 10 µM

O=C(C=Cn1cnc(-c2cc(C(F)(F)F)cc(C(F)(F)F)c2)n1)NNc1cnccn1 + CC(CO)NC(=O)c1cc(-c2ccc(Cl)cc2)nn(-c2cnn(C)c2)c1=O
352 nM: IC50 [3]
300 nM: IC50 [5]
333 nM: IC50 [4]
314 nM: IC50 [2]
inactive: viability, T/C (second compound 0.1 µM, first compound 0.00949 µM) 102% | viability, T/C (second compound 0.1 µM, first compound 0.03 µM) 108% | viability, T/C (second compound 0.1 µM, first compound 0.0949 µM) 89.4% | viability, T/C (second compound 0.1 µM, first compound 0.3 µM) 51.8% | viability, T/C (second compound 0.1 µM, first compound 0.949 µM) 19.2% | viability, T/C (second compound 0.1 µM, first compound 3 µM) 17.2% | viability, T/C (second compound 0.316 µM, first compound 0.00949 µM) 109% | viability, T/C (second compound 0.316 µM, first compound 0.03 µM) 103% | viability, T/C (second compound 0.316 µM, first compound 0.0949 µM) 87.7% | viability, T/C (second compound 0.316 µM, first compound 0.3 µM) 53.3% | viability, T/C (second compound 0.316 µM, first compound 0.949 µM) 19.6% | viability, T/C (second compound 0.316 µM, first compound 3 µM) 18.4% | viability, T/C (second compound 1 µM, first compound 0.00949 µM) 107% | viability, T/C (second compound 1 µM, first compound 0.03 µM) 102% | viability, T/C (second compound 1 µM, first compound 0.0949 µM) 94.8% | viability, T/C (second compound 1 µM, first compound 0.3 µM) 55.1% | viability, T/C (second compound 1 µM, first compound 0.949 µM) 20.8% | viability, T/C (second compound 1 µM, first compound 3 µM) 18.6% | viability, T/C (second compound 3.16 µM, first compound 0.00949 µM) 108% | viability, T/C (second compound 3.16 µM, first compound 0.03 µM) 100% | viability, T/C (second compound 3.16 µM, first compound 0.0949 µM) 91.7% | viability, T/C (second compound 3.16 µM, first compound 0.3 µM) 51.5% | viability, T/C (second compound 3.16 µM, first compound 0.949 µM) 28.2% | viability, T/C (second compound 3.16 µM, first compound 3 µM) 21.9% | viability, T/C (second compound 10 µM, first compound 0.00949 µM) 97% | viability, T/C (second compound 10 µM, first compound 0.03 µM) 102% | viability, T/C (second compound 10 µM, first compound 0.0949 µM) 100% | viability, T/C (second compound 10 µM, first compound 0.3 µM) 50% | viability, T/C (second compound 10 µM, first compound 0.949 µM) 22.6% | viability, T/C (second compound 10 µM, first compound 3 µM) 24.4%
305 nM: IC50 [1]

Nc1ccccc1NC(=O)c1ccc(CNC(=O)OCc2cccnc2)cc1
1640 nM and 1300 nM and 1190 nM: IC50 (curve of compound)
active: viability, T/C (compound 10 µM) 1.27% and 0.71% and 1.79%
inactive: viability, T/C (compound 0.0316 µM) 110% and 93.1% and 105% | viability, T/C (compound 0.1 µM) 94.4% and 93.7% and 104% | viability, T/C (compound 0.316 µM) 90.6% and 82% and 81.3% | viability, T/C (compound 1 µM) 65.3% and 61.6% and 56.3% | viability, T/C (compound 3.16 µM) 29.8% and 16.3% and 22.4%

CC1COCCN1c1cc(C2(S(C)(=N)=O)CC2)nc(-c2ccnc3[nH]ccc23)n1 (centres undefined)
> 10000 nM and 9320 nM: IC50 (curve of compound)
inactive: viability, T/C (compound 0.0316 µM) 105% and 94.7% and 106% | viability, T/C (compound 0.1 µM) 108% and 91.7% and 112% | viability, T/C (compound 0.316 µM) 119% and 99.9% and 103% | viability, T/C (compound 1 µM) 105% and 89.6% and 108% | viability, T/C (compound 3.16 µM) 104% and 76.3% and 81.6% | viability, T/C (compound 10 µM) 60.3% and 48.3% and 55.5%

CC1COCCN1c1cc(-c2ccnn2C)c2ccnc(-c3ccn[nH]3)c2n1 (centres undefined) + Cc1ccccc1N=Nc1ccc(NC(=O)c2ccnn2C)c(C)c1
266 nM: IC50 [3]
inactive: viability, T/C [6] 107% | viability, T/C [7] 109% | viability, T/C [8] 97% | viability, T/C [9] 80.8% | viability, T/C [10] 48.9% | viability, T/C [11] 35% | viability, T/C [12] 105% | viability, T/C [13] 128% | viability, T/C [14] 109% | viability, T/C [15] 88% | viability, T/C [16] 46.6% | viability, T/C [17] 39.1% | viability, T/C [18] 106% | viability, T/C [19] 109% | viability, T/C [20] 109% | viability, T/C [21] 85.6% | viability, T/C [22] 44.2% | viability, T/C [23] 32.1% | viability, T/C [24] 106% | viability, T/C [25] 97.5% | viability, T/C [26] 89.7% | viability, T/C [27] 78% | viability, T/C [28] 43.5% | viability, T/C [29] 37% | viability, T/C [30] 69.1% | viability, T/C [31] 64.7% | viability, T/C [32] 65% | viability, T/C [33] 59.8% | viability, T/C [34] 40.1% | viability, T/C [35] 41.9%
315 nM: IC50 [1]
283 nM: IC50 [4]
292 nM: IC50 [2]
182 nM: IC50 [5]

CC1COCCN1c1cc(-c2ccnn2C)c2ccnc(-c3ccn[nH]3)c2n1 (centres undefined) + Cc1cncc(-c2nc(NCCc3c[nH]c4ccccc34)c3ncn(C(C)C)c3n2)c1
< 3.16 nM: IC50 [5]
662 nM: IC50 [2]
589 nM: IC50 [1]
active: viability, T/C [30] 4.51% | viability, T/C [31] 3.84% | viability, T/C [32] 4.82% | viability, T/C [33] 4.52% | viability, T/C [34] 4.47% | viability, T/C [35] 7.62%
342 nM: IC50 [3]
inactive: viability, T/C [6] 109% | viability, T/C [7] 117% | viability, T/C [8] 109% | viability, T/C [9] 96.8% | viability, T/C [10] 55.8% | viability, T/C [11] 45.1% | viability, T/C [12] 108% | viability, T/C [13] 116% | viability, T/C [14] 109% | viability, T/C [15] 91.8% | viability, T/C [16] 57.2% | viability, T/C [17] 46% | viability, T/C [18] 109% | viability, T/C [19] 116% | viability, T/C [20] 103% | viability, T/C [21] 81.7% | viability, T/C [22] 50.6% | viability, T/C [23] 38.5% | viability, T/C [24] 62.9% | viability, T/C [25] 65% | viability, T/C [26] 58.8% | viability, T/C [27] 51.3% | viability, T/C [28] 35.1% | viability, T/C [29] 37.7%
104 nM: IC50 [4]

COc1ccc([C@@H](O)c2cc(-c3ncnc4cc(N5CCOCC5)ccc34)c(F)cc2Cl)nn1 + Cc1cncc(-c2nc(NCCc3c[nH]c4ccccc34)c3ncn(C(C)C)c3n2)c1
< 31.6 nM: IC50 [5]
5990 nM: IC50 [3]
2560 nM: IC50 [4]
active: viability, T/C [32] 5% | viability, T/C [33] 4.23% | viability, T/C [34] 5.09% | viability, T/C [35] 5.36% | viability, T/C [44] 7.09% | viability, T/C [45] 9.8%
5830 nM: IC50 [2]
inactive: viability, T/C [8] 108% | viability, T/C [9] 115% | viability, T/C [10] 104% | viability, T/C [11] 86% | viability, T/C [36] 61% | viability, T/C [37] 40.3% | viability, T/C [14] 112% | viability, T/C [15] 114% | viability, T/C [16] 109% | viability, T/C [17] 92.5% | viability, T/C [38] 59% | viability, T/C [39] 42.1% | viability, T/C [20] 103% | viability, T/C [21] 118% | viability, T/C [22] 102% | viability, T/C [23] 84.8% | viability, T/C [40] 58.6% | viability, T/C [41] 43.4% | viability, T/C [26] 68.6% | viability, T/C [27] 61% | viability, T/C [28] 64.8% | viability, T/C [29] 56.2% | viability, T/C [42] 48.4% | viability, T/C [43] 36.1%
5740 nM: IC50 [1]

CC(C)c1c(-c2ccccc2)nc2c(C#N)c[nH]n2c1=O + CC(CO)NC(=O)c1cc(-c2ccc(Cl)cc2)nn(-c2cnn(C)c2)c1=O
inactive: viability, T/C [8] 109% | viability, T/C [9] 116% | viability, T/C [10] 121% | viability, T/C [11] 113% | viability, T/C [36] 119% | viability, T/C [37] 111% | viability, T/C [14] 113% | viability, T/C [15] 129% | viability, T/C [16] 123% | viability, T/C [17] 111% | viability, T/C [38] 113% | viability, T/C [39] 115% | viability, T/C [20] 109% | viability, T/C [21] 124% | viability, T/C [22] 119% | viability, T/C [23] 113% | viability, T/C [40] 113% | viability, T/C [41] 116% | viability, T/C [26] 115% | viability, T/C [27] 124% | viability, T/C [28] 131% | viability, T/C [29] 113% | viability, T/C [42] 120% | viability, T/C [43] 120% | viability, T/C [32] 110% | viability, T/C [33] 113% | viability, T/C [34] 107% | viability, T/C [35] 110% | viability, T/C [44] 113% | viability, T/C [45] 110%
> 10000 nM: IC50 [1] | IC50 [2] | IC50 [3] | IC50 [4] | IC50 [5]
